The target of one data set is T1, human TRPM8 (Homo sapiens, UniProt Q7Z2W7).
T1 construct: expressed in transfected cells; host or cells: HEK293
T1 sequence (Q7Z2W7 whole entry): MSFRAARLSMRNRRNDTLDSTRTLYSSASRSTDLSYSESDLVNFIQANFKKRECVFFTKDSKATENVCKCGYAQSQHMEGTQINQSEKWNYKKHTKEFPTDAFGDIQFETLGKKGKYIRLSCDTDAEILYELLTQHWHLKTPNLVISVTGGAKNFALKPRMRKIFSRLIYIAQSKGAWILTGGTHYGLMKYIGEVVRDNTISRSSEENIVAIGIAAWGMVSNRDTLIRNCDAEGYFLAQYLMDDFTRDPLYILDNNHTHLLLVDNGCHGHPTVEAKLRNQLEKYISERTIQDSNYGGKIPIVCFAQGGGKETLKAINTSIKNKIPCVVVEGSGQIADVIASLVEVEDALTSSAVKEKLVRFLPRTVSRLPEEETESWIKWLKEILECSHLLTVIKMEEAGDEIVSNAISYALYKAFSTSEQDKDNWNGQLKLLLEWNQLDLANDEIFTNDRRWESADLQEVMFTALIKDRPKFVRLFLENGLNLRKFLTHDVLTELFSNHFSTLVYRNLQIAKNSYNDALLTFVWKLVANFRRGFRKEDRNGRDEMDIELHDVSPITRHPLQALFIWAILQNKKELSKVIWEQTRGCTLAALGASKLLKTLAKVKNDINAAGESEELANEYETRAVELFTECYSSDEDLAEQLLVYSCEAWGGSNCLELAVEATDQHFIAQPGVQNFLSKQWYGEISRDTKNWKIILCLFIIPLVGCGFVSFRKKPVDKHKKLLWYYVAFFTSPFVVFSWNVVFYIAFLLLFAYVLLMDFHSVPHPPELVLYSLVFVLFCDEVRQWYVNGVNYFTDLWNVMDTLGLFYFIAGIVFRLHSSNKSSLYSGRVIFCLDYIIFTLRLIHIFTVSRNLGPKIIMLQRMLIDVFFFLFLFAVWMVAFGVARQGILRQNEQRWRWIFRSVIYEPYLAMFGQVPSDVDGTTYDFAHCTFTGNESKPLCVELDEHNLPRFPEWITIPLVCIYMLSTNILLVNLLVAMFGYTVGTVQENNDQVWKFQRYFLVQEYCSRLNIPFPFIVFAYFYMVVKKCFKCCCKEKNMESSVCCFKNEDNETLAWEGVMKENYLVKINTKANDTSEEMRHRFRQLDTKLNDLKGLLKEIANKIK
In words: Menthol-induced Ca2+ influx in HEK293 cells stably expressing human TRPM8. As to conditions: 30 microM menthol-induced Ca2+ influx, read-out: IC50 against TRPM8. The format is cell-based. Summed up:
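HEK293 cells stably expressing human TRPM8 were loaded with Fluo4-AM for 1 h at room temperature, preincubated 5 min with compound, then challenged with 30 microM menthol. Calcium rise was read by FDSS imaging. IC50 came from 11-point curves using duplicate-well means.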
As a reminder, the IC50 is the point on the concentration scale where inhibition reaches its midpoint. With `O=C(CN1C(=O)NC2(CCCCC2)C1=O)c1ccc(Oc2cccc(Cl)c2)nc1` [Example 20-1, 3-(2-(6-(3-chlorophenoxy)pyridin-3-yl)-2-oxoethyl)-1,3-diazaspiro[4.5]decane-2,4-dione], the IC50 was less than 100 nM.
`Cc1cc(C(=O)CN2C(=O)NC3(CCC(F)(F)CC3)C2=O)sc1-c1cccnc1` [Example 14-7]: the IC50 is less than 100 nM.
With `N#Cc1cccc(-c2ccc(C(=O)CN3C(=O)OC4(CCC(F)(F)CC4)C3=O)cc2)n1` [Example 7-25], the IC50 was less than 100 nM.
Take `Cc1ccncc1-c1ncc(C(=O)CN2C(=O)NC3(CCC(F)(F)CC3)C2=O)cc1Cl` [Example 5-25]: the IC50 was less than 100 nM.
Still for that read-out and setting: then `N#Cc1nccnc1-c1ccc(C(=O)CN2C(=O)NC3(CCC(F)(F)CC3)C2=O)cc1F` [Example 8-1], with less than 100 nM; and `O=C(CN1C(=O)NC2(CCC(F)(F)CC2)C1=O)c1ccc(-c2cccc(O)c2)cc1` [Example 6-35], with less than 100 nM; and `O=C(CN1C(=O)NC2(CCC(F)(F)CC2)C1=O)c1ccc(-c2cccc3c2C(O)CC3)cc1` (centres unmarked) [Example 6-50], with less than 500 nM.
The same measure, in the same setting: then `Cc1cc(C(=O)CN2C(=O)NC3(CCC(F)(F)CC3)C2=O)sc1-c1ccccc1CO` [Example 14-4], with less than 100 nM.
`O=C(CN1C(=O)NC2(CCC(F)(F)CC2)C1=O)c1ccc(-c2nccc3cn[nH]c23)cc1` [Example 6-62]: the IC50 was less than 500 nM.
On the same count and under the same terms, then `Cc1cc(C(=O)CN2C(=O)NC3(CCC(F)(F)CC3)C2=O)sc1-c1cccnc1CO` [Example 14-19], with less than 500 nM; and `N#Cc1cccc(-c2ccc(C(=O)CN3C(=O)NC4(CCCCC4)C3=O)cc2)n1` [Example 7-5], with less than 100 nM.
On to `Cc1cc(C(=O)CN2C(=O)NC3(CCC(F)(F)CC3)C2=O)n(C)c1-c1cccc(C#N)c1` [Example 16-4], for which the IC50 was less than 10 nM.
The same measure, in the same setting: then `Cc1cnc(C)c(-c2ccc(C(=O)CN3C(=O)NC4(CCC(F)(F)CC4)C3=O)cc2)n1` [Example 6-7], with less than 10 nM; and `CC(=O)c1ccccc1-c1ccc(C(=O)CN2C(=O)NC3(CCC(F)(F)CC3)C2=O)cc1` [Example 6-102], with less than 500 nM.
On the same count and under the same terms, then `N#Cc1cccc(Oc2ccc(C(=O)CN3C(=O)NC4(CCC(F)(F)CC4)C3=O)cc2)n1` [Example 21-5], with less than 100 nM; and `CCN(c1ccccc1)c1ccc(C(=O)CN2C(=O)NC3(CCCCC3)C2=O)cn1` [Example 19-3], with less than 100 nM.
On the same count and under the same terms, then `CCOc1nc2ccc(C)nc2n1-c1ccc(C(=O)CN2C(=O)NC3(CCC(F)(F)CC3)C2=O)cc1` [Example 26-4], with less than 100 nM; and `O=C(CN1C(=O)NC2(CCCCC2)C1=O)c1ccc(-c2nccnc2CO)cc1` [Example 7-10], with less than 100 nM; and `O=C(CN1C(=O)NC2(CCC(F)(F)CC2)C1=O)c1cnc(-c2cccc3cccnc23)cn1` [Example 12-6], with less than 100 nM.
For the compound `O=C(CN1C(=O)NC2(CCC(F)(F)CC2)C1=O)c1ccc(Sc2ncccn2)cc1` [Example 5-39], the IC50 is less than 100 nM.
Still for that read-out and setting: as for `O=C(CN1C(=O)NC2(CCC(F)(F)CC2)C1=O)c1ccc(-c2cnccc2CO)cc1` [Example 6-10], the figure is less than 100 nM; as for `Cc1nc(-c2ccc(C(=O)CN3C(=O)NC4(CCC(F)(F)CC4)C3=O)cc2)c2ccccc2n1` [Example 6-33], less than 100 nM; as for `CN(c1cccnc1)c1ccc(C(=O)CN2C(=O)NC3(CCCCC3)C2=O)cn1` [Example 19-4], less than 100 nM.
On the same count and under the same terms, as for `Cc1nc(C(=O)CN2C(=O)NC3(CCCCC3)C2=O)c(C)n1-c1cccc(Cl)c1` [Example 2-15], the figure is less than 100 nM; as for `CN(c1ccccn1)c1ccc(C(=O)CN2C(=O)NC3(CCC(F)(F)CC3)C2=O)cn1` [Example 19-6], less than 100 nM; as for `Cc1nc(C(=O)CN2C(=O)OC3(CCCCC3)C2=O)c(C)n1-c1ccccc1` [Example 2-4], less than 100 nM.
Take `O=C(CN1C(=O)NC2(CCC(F)(F)CC2)C1=O)c1ccc(Oc2cccnc2)cc1` [Example 21-14, 8,8-difluoro-3-(2-oxo-2-(4-(pyridin-3-yloxy)phenyl)ethyl)-1,3-diazaspiro[4.5]decane-2,4-dione]: the IC50 is less than 100 nM.
On the same count and under the same terms, then `Cc1ncccc1-c1ccc(C(=O)CN2C(=O)NC3(CCC(F)(F)CC3)C2=O)cn1` [Example 9-15], with less than 100 nM; and `Cc1ccncc1-c1ccc(C(=O)CN2C(=O)NC3(CCCCC3)C2=O)cc1` [Example 7-2], with less than 100 nM; and `Cc1cc(C(=O)CN2C(=O)NC3(CCC(F)(F)CC3)C2=O)ccc1-c1cccc2c1CNC2=O` [Example 13-10], with less than 100 nM.
Still for that read-out and setting: then `O=C(CN1C(=O)NC2(CCCCC2)C1=O)c1ccc(-c2cccnc2CO)cc1` [Example 7-11], with less than 100 nM; and `Cc1ccc2ncn(-c3ccc(C(=O)CN4C(=O)NC5(CCC(F)(F)CC5)C4=O)cc3)c2n1` [Example 26-2], with less than 100 nM.
The same measure, in the same setting: as for `Cc1nc(C(=O)CN2C(=O)NC3(CCC(F)(F)CC3)C2=O)n(C)c1-c1ccccc1CO` [Example 17-10], the figure is less than 100 nM; as for `O=C1Cc2c(cccc2-c2ccc(C(=O)CN3C(=O)NC4(CCC(F)(F)CC4)C3=O)cn2)N1` [Example 9-19], less than 100 nM; as for `O=C(CN1C(=O)NC2(CCC(F)(F)CC2)C1=O)c1ccc(Oc2cncnc2)cc1` [Example 21-15], less than 500 nM.
For `Cc1sc(C(=O)CN2C(=O)NC3(CCC(F)(F)CC3)C2=O)c(C)c1-c1cncc(F)c1` [Example 15-6], the IC50 was less than 10 nM.
For the compound `Cc1ccc(C#N)c(-c2ccc(C(=O)CN3C(=O)NC4(CCC(F)(F)CC4)C3=O)cc2)n1` [Example 6-92], the IC50 was less than 100 nM.
As to `Cc1cc(C(=O)CN2C(=O)NC3(CCC(F)(F)CC3)C2=O)sc1-c1cnccc1CO` [Example 14-6], the IC50 was less than 100 nM.
On to `CCc1ccccc1-c1ccc(C(=O)CN2C(=O)NC3(CCC(F)(F)CC3)C2=O)cn1` [Example 9-20], for which the IC50 is less than 100 nM.
Still for that read-out and setting: as for `O=C1Cc2c(cccc2-c2ccc(C(=O)CN3C(=O)NC4(CCC(F)(F)CC4)C3=O)cc2)N1` [Example 13-44], the figure is less than 100 nM.
Same read-out and setting: then `Cc1ccc2nc(C)n(-c3ccc(C(=O)CN4C(=O)NC5(CCCCCC5)C4=O)cc3)c2n1` [Example 5-30], with less than 100 nM.
For the compound `Cc1cc(C(=O)CN2C(=O)NC3(CCC(F)(F)CC3)C2=O)sc1-c1cccnc1C` [Example 14-9], the IC50 is less than 100 nM.
For `Cc1cc(C(=O)CN2C(=O)NC3(CCC(F)(F)CC3)C2=O)n(C)c1-c1ccccc1C#N` [Example 16-7], the IC50 was less than 100 nM.
As for `N#Cc1ccccc1-c1ccc(C(=O)CN2C(=O)NC3(CCC(F)(F)CC3)C2=O)cc1Cl` [Example 13-25], the IC50 was less than 100 nM.
Turning to `Cc1nc(C(=O)CN2C(=O)NC3(CCC(F)(F)CC3)C2=O)c(C)n1-c1cccc(Cl)c1` [Example 2-14], the IC50 is less than 100 nM.
In the case of `O=C(CN1C(=O)NC2(CCC(F)(F)CC2)C1=O)c1ccc(-n2cnc3ncncc32)cc1` [Example 19-35], the IC50 is less than 500 nM.

The target in another data set is T2, Human HERG (Homo sapiens, UniProt Q12809).
T2 construct: expressed in transfected cells; host or cells: HEK293S (membrane homogenate)
T2 sequence (Q12809 whole entry): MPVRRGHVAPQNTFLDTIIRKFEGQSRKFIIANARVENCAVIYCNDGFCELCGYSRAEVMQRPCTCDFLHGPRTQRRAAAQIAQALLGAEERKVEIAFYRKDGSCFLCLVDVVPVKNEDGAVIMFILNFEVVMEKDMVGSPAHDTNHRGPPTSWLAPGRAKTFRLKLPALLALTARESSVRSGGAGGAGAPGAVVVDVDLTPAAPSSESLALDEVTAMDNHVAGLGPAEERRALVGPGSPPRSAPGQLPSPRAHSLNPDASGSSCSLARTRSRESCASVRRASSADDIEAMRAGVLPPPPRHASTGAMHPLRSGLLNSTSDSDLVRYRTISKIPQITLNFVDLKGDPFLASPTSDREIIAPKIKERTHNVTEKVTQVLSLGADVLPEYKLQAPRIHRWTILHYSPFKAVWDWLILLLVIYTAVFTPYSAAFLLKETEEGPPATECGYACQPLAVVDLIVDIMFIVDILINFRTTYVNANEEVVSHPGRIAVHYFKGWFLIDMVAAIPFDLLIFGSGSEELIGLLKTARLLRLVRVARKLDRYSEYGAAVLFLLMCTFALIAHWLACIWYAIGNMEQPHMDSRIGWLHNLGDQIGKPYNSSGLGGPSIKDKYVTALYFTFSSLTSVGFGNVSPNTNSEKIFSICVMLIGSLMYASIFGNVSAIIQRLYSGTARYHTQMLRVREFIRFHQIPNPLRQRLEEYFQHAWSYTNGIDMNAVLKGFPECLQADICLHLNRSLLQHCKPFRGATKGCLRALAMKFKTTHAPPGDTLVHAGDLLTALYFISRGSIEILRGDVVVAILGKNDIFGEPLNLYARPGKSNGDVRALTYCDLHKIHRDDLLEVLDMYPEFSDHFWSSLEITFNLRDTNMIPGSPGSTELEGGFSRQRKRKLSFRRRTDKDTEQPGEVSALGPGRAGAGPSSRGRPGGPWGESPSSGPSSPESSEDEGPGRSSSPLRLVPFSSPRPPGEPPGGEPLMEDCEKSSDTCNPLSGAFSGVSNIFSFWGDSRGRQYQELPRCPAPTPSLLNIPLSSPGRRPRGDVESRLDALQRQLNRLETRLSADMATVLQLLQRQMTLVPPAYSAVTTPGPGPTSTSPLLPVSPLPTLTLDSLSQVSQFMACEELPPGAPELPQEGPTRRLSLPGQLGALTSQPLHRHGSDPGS
As to the kind of experiment: Human dofetilide binding assay. The conditions noted are these: Human HERG transfected HEK293S cell membranes. As to the method: Human Dofetilide Binding Assay
Human HERG transfected HEK293S cells are prepared and grown in-house. The collected cells are suspended in 50 mM Tris-HCl (pH 7.4 at 4° C.) and homogenized using a hand held Polytron PT 1200 disruptor set at full power for 20 sec on ice. The homogenates are centrifuged at 48,000×g at 4° C. for 20 min. The pellets are then resuspended, homogenized, and centrifuged once more in the same manner. The final pellets are resuspended in an appropriate volume of 50 mM Tris-HCl, 10 mM KCl, 1 mM MgCl2 (pH 7.4 at 4° C.), homogenized, aliquoted and stored at −80° C. until use. An aliquot of membrane fractions is used for protein concentration determination using BCA protein assay kit (PIERCE) and ARVOsx plate reader (Wallac). Binding assays are conducted in a total volume of 30 microL in 384-well plates. The activity is measured by PHERAstar (BMG LABTECH) using fluorescence polarization technology. Ten microL of test compounds are incubated with 10 microL of fluorescence ligand (6 nM Cy3B tagged dofetilide derivative) and 10 microL of membrane homogenate (6 microgram protein) for 120 minutes at room temperature. Nonspecific binding is determined by 10 microM E4031 at the final concentration.
By Ki is commonly meant a dissociation constant, usually derived from enzyme kinetics or from competition with a known ligand. As to `CC(C)[C@@H]1CC[C@@H](C)C[C@]12NC(=O)C(CC(=O)c1ccccc1)C2=O` (some centres unmarked) [closest compound], the IC50 was 19000 nM and the affinity, expressed as Ki, was 6500 nM.

Tested on in the next data set: not listed separately
As to the kind of experiment: Metabolic stability assay: half-life in human liver microsomes (HLM). As to conditions: human, pH 7.4, read-out: intrinsic clearance (CLint). It counts as in vitro ADME. As to the method:
Metabolic Stability Assay:
Half-Life in Human Liver Microsomes (HLM)
Test compounds (1 microM) are incubated with 1 mM MgCl2 and 0.78 mg/mL HLM (HL101) or 0.74 mg/mL HLM (Gentest UltraPool 150) or 0.61 mg/mL HLM (XenoTech XTreme 200) in 100 mM potassium phosphate buffer (pH 7.4) at 37° C. on the 96-deep well plate. The reaction mixture is split into two groups, a non-P450 and a P450 groupon necessary. NADPH is only added to the reaction mixture of the P450 group. (NADPH generation system is also used instead of NADPH.) An aliquot of samples of P450 group is collected at 0, 10, 30, and 60 min time point, where 0 min time point indicated the time when NADPH is added into the reaction mixture of P450 group. An aliquot of samples of non-P450 group is collected at −10 and 65 min time point. Collected aliquots are extracted with acetonitrile solution containing an internal standard. The precipitated protein is spun down in centrifuge (2000 rpm, 15 min). The compound concentration in supernatant is measured by LC/MS/MS system.
The half-life value is obtained by plotting the natural logarithm of the peak area ratio of compounds/internal standard versus time. The slope of the line of best fit through the points yield the rate of metabolism (k). This is converted to a half-life value using following equations: Half-life=ln 2/k {Math. 4}
For the compound `CC(C)[C@@H]1CC[C@@H](C)C[C@]12NC(=O)C(CC(=O)c1ccccc1)C2=O` (some centres unmarked) [closest compound], the CLint scaled at 1 microM was more than 215 mL/min/kg.

The same data set, now with this note: pH 7.4, 1 microM.
The term half-life denotes how long it takes for the measured level to halve. Read a high half-life as slow decline. On to `CC(C)[C@@H]1CC[C@@H](C)C[C@]12NC(=O)C(CC(=O)c1ccccc1)C2=O` (some centres unmarked) [closest compound], for which the half-life at 1 microM is less than 5 min.

Values taken from patent publication US10093678B2, “Azaspiro derivatives as TRPM8 antagonists” (RaQualia Pharma Inc., priority 2014, dated 2018).
